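48-hour exposure; five concentrations; linearly interpolated endpoints. GI50 = concentration required for 50% inhibition of growth.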 Active and inactive are the calls of the source. No stated cut-off is given here; in the data, active = GI50 up to about 1.1 µM and inactive = higher. Non-standard residues stand in square brackets, D forms with d. Residues, ends and D or L forms follow the SMILES beside them. ξ: configuration not given here. Pentanoyl(2-O,4-OH,5-Cl) = O=C(O)C(O)CC(O)CCl; Ile(3ξ) = CCC(C)[C@H](N)C(=O)O; NMeV = CN[C@H](C(=O)O)C(C)C; NMeA = CN[C@@H](C)C(=O)O; βAla = NCCC(=O)O
Tests used:
Assay in all cases: NCI tumour cell line growth inhibition, 48 h
M14 = system: M14
K562 = system: K562
ACHN = system: ACHN
MCF7 = system: MCF7
NCI-H522 = system: NCI-H522
SR = system: SR
RXF 393 = system: RXF 393
NCI-H23 = system: NCI-H23
HOP-62 = system: HOP-62
A498 = system: A498
OVCAR-3 = system: OVCAR-3
COLO 205 = system: COLO 205
HL-60 = system: HL-60
HCT-116 = system: HCT-116
UO-31 = system: UO-31
OVCAR-8 = system: OVCAR-8
SNB-75 = system: SNB-75
KM12 = system: KM12
SNB-19 = system: SNB-19
SK-MEL-2 = system: SK-MEL-2

Row | SMILES | GI50 (M14) | GI50 (K562) | GI50 (ACHN) | GI50 (MCF7) | GI50 (NCI-H522) | GI50 (SR) | GI50 (RXF 393) | GI50 (NCI-H23) | GI50 (HOP-62) | GI50 (A498) | GI50 (OVCAR-3) | GI50 (COLO 205) | GI50 (HL-60) | GI50 (HCT-116) | GI50 (UO-31) | GI50 (OVCAR-8) | GI50 (SNB-75) | GI50 (KM12) | GI50 (SNB-19) | GI50 (SK-MEL-2)
1 | CCCCN(C(=O)c1ccccc1)C1CCC(=O)c2[nH]c3ccccc3c21 (stereo unspecified) | 67.1 µM (inactive) | 49.7 µM (inactive) | 31.3 µM (inactive) | 27.4 µM (inactive) | 38.7 µM (inactive) | 11.2 µM (inactive) | 25.8 µM (inactive) | 62.4 µM (inactive) | 40.4 µM (inactive) | 29 µM (inactive) | 64.7 µM (inactive) | 21 µM (inactive) | 8.75 µM (inactive) | 24.7 µM (inactive) | 66.5 µM (inactive) | 45.8 µM (inactive) | 0.481 µM (active) | 79.6 µM (inactive) | 43.6 µM (inactive) | –
2 | CCC1OC2C(CC=C(C)C)=C3OC(C)(O)C(C)(CC)C(OC(C)=O)C3=C3OC(=O)C=C1C32 (stereo unspecified) | 30.5 µM (inactive) | 32.8 µM (inactive) | 39.6 µM (inactive) | 30.1 µM (inactive) | 16.6 µM (inactive) | 31.8 µM (inactive) | – | 27.7 µM (inactive) | 23.6 µM (inactive) | 36.7 µM (inactive) | 37.8 µM (inactive) | 28.2 µM (inactive) | 75 µM (inactive) | 25.7 µM (inactive) | 22.6 µM (inactive) | 35 µM (inactive) | 23.6 µM (inactive) | 23.1 µM (inactive) | 28.1 µM (inactive) | 19.9 µM (inactive)
3 | CCOP(=O)(CN=C(c1ccccc1)c1ccccc1)OCC | > 100 µM (inactive) | > 100 µM (inactive) | > 100 µM (inactive) | > 100 µM (inactive) | > 100 µM (inactive) | > 100 µM (inactive) | – | > 100 µM (inactive) | > 100 µM (inactive) | 73.8 µM (inactive) | 63.2 µM (inactive) | > 100 µM (inactive) | 87.1 µM (inactive) | > 100 µM (inactive) | > 100 µM (inactive) | > 100 µM (inactive) | > 100 µM (inactive) | – | > 100 µM (inactive) | > 100 µM (inactive)
4 | O=C/C(=C1/C=Cc2cc([N+](=O)[O-])ccc2S1)c1ccccc1 | > 100 µM (inactive) | > 100 µM (inactive) | > 100 µM (inactive) | > 100 µM (inactive) | > 100 µM (inactive) | > 100 µM (inactive) | > 100 µM (inactive) | > 100 µM (inactive) | > 100 µM (inactive) | > 100 µM (inactive) | > 100 µM (inactive) | > 100 µM (inactive) | > 100 µM (inactive) | > 100 µM (inactive) | > 100 µM (inactive) | – | 25.1 µM (inactive) | – | > 100 µM (inactive) | > 100 µM (inactive)
5 | Nc1ccc(N(S(=O)(=O)c2ccccc2)S(=O)(=O)c2ccccc2)c(Cl)c1 | 77.6 µM (inactive) | 2.98 µM (inactive) | 66.5 µM (inactive) | 39.3 µM (inactive) | 33.9 µM (inactive) | 57.3 µM (inactive) | > 100 µM (inactive) | 55.8 µM (inactive) | 63.8 µM (inactive) | 25.2 µM (inactive) | – | 21 µM (inactive) | – | 55.2 µM (inactive) | > 100 µM (inactive) | 70.8 µM (inactive) | 42.2 µM (inactive) | 24.2 µM (inactive) | > 100 µM (inactive) | 31.3 µM (inactive)
6 | Cc1nn(C)c2c1C(=O)N(C)CC(=O)N2C | > 100 µM (inactive) | > 100 µM (inactive) | > 100 µM (inactive) | > 100 µM (inactive) | > 100 µM (inactive) | > 100 µM (inactive) | > 100 µM (inactive) | > 100 µM (inactive) | > 100 µM (inactive) | > 100 µM (inactive) | > 100 µM (inactive) | > 100 µM (inactive) | > 100 µM (inactive) | > 100 µM (inactive) | > 100 µM (inactive) | > 100 µM (inactive) | > 100 µM (inactive) | > 100 µM (inactive) | > 100 µM (inactive) | –
7 | CCC(C)[C@@H]1NC(=O)[C@@H]2CCCN2C(=O)C(CC(O)CCl)OC(=O)CCNC(=O)[C@H](C)N(C)C(=O)[C@H](C(C)C)N(C)C1=O (stereo partly specified) (cyclo([Ile(3ξ)][NMeV][NMeA][βAla][Pentanoyl(2-O,4-OH,5-Cl)]P)) | 0.46 µM (active) | > 45.1 µM (inactive) | > 100 µM (inactive) | > 39.8 µM (inactive) | 2.36 µM (inactive) | 0.361 µM (active) | > 100 µM (inactive) | > 100 µM (inactive) | > 68.2 µM (inactive) | > 29.1 µM (inactive) | 17.9 µM (inactive) | 1.91 µM (inactive) | 44.1 µM (inactive) | 13.9 µM (inactive) | > 93.3 µM (inactive) | > 100 µM (inactive) | 2.92 µM (inactive) | > 61.9 µM (inactive) | > 100 µM (inactive) | 0.347 µM (active)
8 | Cc1c(Cl)c(=O)oc2cc(OCC(=O)c3ccccc3)ccc12 | > 100 µM (inactive) | > 100 µM (inactive) | > 100 µM (inactive) | > 100 µM (inactive) | > 100 µM (inactive) | 2.7 µM (inactive) | > 100 µM (inactive) | > 100 µM (inactive) | 31.3 µM (inactive) | > 100 µM (inactive) | > 100 µM (inactive) | > 100 µM (inactive) | > 100 µM (inactive) | – | > 100 µM (inactive) | > 100 µM (inactive) | – | > 100 µM (inactive) | > 100 µM (inactive) | > 100 µM (inactive)
9 | CC(C)CC(N)C(=O)NC(CNC(CCC(N)=O)C(=O)NC(CC(C)C)C(=O)NC(CC(C)C)C(=O)O)Cc1ccc2ccccc2c1 (stereo unspecified) | > 10 µM (inactive) | > 10 µM (inactive) | > 10 µM (inactive) | > 10 µM (inactive) | – | > 10 µM (inactive) | > 10 µM (inactive) | > 10 µM (inactive) | > 10 µM (inactive) | > 10 µM (inactive) | > 10 µM (inactive) | > 10 µM (inactive) | > 10 µM (inactive) | > 10 µM (inactive) | > 10 µM (inactive) | > 10 µM (inactive) | > 10 µM (inactive) | > 10 µM (inactive) | > 10 µM (inactive) | > 10 µM (inactive)
10 | COc1ccc(C2c3cc4c(cc3OC(NCCO)C2C)OCO4)cc1 (stereo unspecified) | 26.4 µM (inactive) | 22.5 µM (inactive) | 29.6 µM (inactive) | 27.3 µM (inactive) | 16.6 µM (inactive) | 19 µM (inactive) | 23.2 µM (inactive) | 35.8 µM (inactive) | 29.8 µM (inactive) | 17.3 µM (inactive) | 17.8 µM (inactive) | 18.4 µM (inactive) | 22.6 µM (inactive) | 17.3 µM (inactive) | 20.5 µM (inactive) | – | 19.6 µM (inactive) | 31.7 µM (inactive) | 28 µM (inactive) | 19.3 µM (inactive)
11 | CC(C(=O)NCCNC(=O)CCCC(=O)N(C)O)C(=O)NCCNC(=O)CCCC(=O)N(C)O | > 100 µM (inactive) | > 100 µM (inactive) | > 100 µM (inactive) | > 100 µM (inactive) | > 100 µM (inactive) | > 100 µM (inactive) | > 100 µM (inactive) | > 100 µM (inactive) | > 100 µM (inactive) | > 100 µM (inactive) | > 100 µM (inactive) | > 100 µM (inactive) | > 100 µM (inactive) | – | > 100 µM (inactive) | > 100 µM (inactive) | > 100 µM (inactive) | > 100 µM (inactive) | > 100 µM (inactive) | > 100 µM (inactive)

Source: ChEMBL document CHEMBL1201862, “PubChem BioAssay data set” (2004)
